Laboratory results as given in patent publication US20250339399A1, “SUPRAMOLECULAR SELF-ASSEMBLY SYSTEM” (Beijing Creatron Institute of Pharmaceutical Research Co., …, priority 2022, published 2025).
Blank lines part the entries; values can stand above or below the molecule they belong to.

Tests used:
[1] = cited from earlier work
[2] = Guest molecule concentration after incubation in initial medium without polymer (Comparative Example 1); format: physicochemical; details: 37° C.
Procedure, shortened: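 Dissolved guest content measured by HPLC of centrifuged supernatants (37° C., 13000 rpm, 5 min) sampled at 0.5 h, 3 h and 6 h. Incubation was polymer-free at 37° C.±0.5° C. in buffers of pH 2.0-7.4; nominal loading was set by maximum clinical dose.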

[3] = Binary (carrier), ternary and quaternary supramolecular self-assembly systems of polymer, carrier building block and target: guest concentration over incubation time (Examples 1-56); format: physicochemical
Method: pH 2.0 hydrochloric acid, pH 4.5 acetate, and pH 6.5, pH 6.8, or pH 7.4 phosphate buffer solutions were prepared. The selection of each initial medium followed the principle that the solubility in the initial medium of the selected targets (or active ingredients) should low enough, but should meet the detection sensitivity and accuracy requirements of the corresponding analytical methods. Each buffer as initial media was placed in a 50 ml test tube with a stopper, shaken in a constant temperature air shaker at 37° C.±0.5° C., with an amplitude of 200 rpm, and incubated for 1 hour. […] Samples were taken at 0.5 h, 3 h and 6 h after incubation, centrifuged at 37° C., 13000 rpm for 5 minutes, and the supernatant was diluted at least 10 times with the mobile phase under the target analyte analytical method, filtered, the initial filtrate was discarded, and the continued filtrate was used as the test solution for injection analysis. The corresponding HPLC method under each target object item in Table 8 was used to determine the content of each target substance. When the solubility of the target in the initial medium is below the quantitative limit of the analytical method, a small amount of surfactant, such as sodium dodecyl sulfate (SDS), Tween20, or Tween80, can be added appropriately.
Experiments were conducted according to the steps in Comparative Example 1, and quantitative analysis was carried out using the analytical method for each target to investigate the regulation ability of each binary supramolecular self-assembly system built from 0.5% polymer and target on guest molecules stacking.
Ternary supramolecular self-assembly systems based on different polymers, carrier building blocks, and targets were built according to the experimental scheme in Table 12, to investigate the influence of synergistic regulation of the carrier building blocks and the polymers on the stacking of target molecules, as well as the stability of the supramolecular self-assembly systems jointly built by them over incubation time. The initial medium, quantitative analysis method, pre-treatment method, and initial theoretical concentration of the target, corresponding to each target molecule in the experiment, were consistent with those in Comparative Examples 1 and 2. After a target was added to the system, the target was uniformly dispersed by ultrasonication at 37° C. for half an hour and then shaken in a 37° C. constant temperature air shaker, and samples were collected after different incubation time, i.e. 0.5 h, 1 h, 2 h, 3 h, 4 h, and 6 h.

[4] = Binary supramolecular self-assembly systems of polymer and target: guest concentration over incubation time (Comparative Example 2); format: physicochemical; details: for Concentration of guest molecule in solution / Times that of the initial medium: 6 h
Method: Experiments were conducted according to the steps in Comparative Example 1, and quantitative analysis was carried out using the analytical method for each target to investigate the regulation ability […] stacking.

[5] = ternary: 0.25% 102H + 1.0% 313, 6 h
[6] = binary system with 0.5% polymer 101, incubation 0.5 h
[7] = binary system with 0.5% polymer 101, incubation 3 h
[8] = binary system with 0.5% polymer 101, incubation 6 h
[9] = binary system with 0.5% polymer 102, incubation 0.5 h
[10] = binary system with 0.5% polymer 102, incubation 3 h
[11] = binary system with 0.5% polymer 102, incubation 6 h
[12] = binary system with 0.5% polymer 103, incubation 0.5 h
[13] = binary system with 0.5% polymer 103, incubation 3 h
[14] = binary system with 0.5% polymer 103, incubation 6 h
[15] = binary system with 0.5% polymer 106, incubation 0.5 h
[16] = binary system with 0.5% polymer 106, incubation 3 h
[17] = binary system with 0.5% polymer 106, incubation 6 h
[18] = binary system with 0.5% polymer 107, incubation 0.5 h
[19] = binary system with 0.5% polymer 107, incubation 3 h
[20] = binary system with 0.5% polymer 107, incubation 6 h
[21] = quaternary: 202 (102H+107) + 0.5% 301, 6 h
[22] = quaternary: 202 (102H+107) + 0.5% 302, 6 h
[23] = quaternary: 204 (102H+103E5) + 0.5% 301, 6 h
[24] = quaternary: 204 (102H+103E5) + 0.5% 302, 6 h
[25] = ternary: 0.25% 102H + 0.5% 301, 6 h
[26] = ternary: 0.25% 102H + 0.5% 302, 6 h

- Concentration of guest molecule measured after different incubated time ([2]; 0.5 h, 0.05% Tween 20 in pH 6.8 phosphate buffer): 18.1 µg/mL
- Concentration of guest molecule measured after different incubated time ([2]; 3 h, 0.05% Tween 20 in pH 6.8 phosphate buffer): 17.8 µg/mL
- Concentration of guest molecule measured after different incubated time ([2]; 6 h, 0.05% Tween 20 in pH 6.8 phosphate buffer): 20.4 µg/mL
- Concentration of guest molecule in solution [3, 5]: 662 µg/mL
- Times that of the initial medium [3, 5]: about 32.5 times
- Concentration of the target in the solution measured after different incubation time [4, 6]: 144.8 µg/mL
- Concentration of the target in the solution measured after different incubation time [4, 7]: 152.8 µg/mL
- Concentration of the target in the solution measured after different incubation time [4, 8]: 147.5 µg/mL
- Concentration of the target in the solution measured after different incubation time [4, 9]: 459.9 µg/mL
- Concentration of the target in the solution measured after different incubation time [4, 10]: 472.0 µg/mL
- Concentration of the target in the solution measured after different incubation time [4, 11]: 459.4 µg/mL
- Concentration of the target in the solution measured after different incubation time [4, 12]: 18.9 µg/mL
- Concentration of the target in the solution measured after different incubation time [4, 13]: 18.9 µg/mL
- Concentration of the target in the solution measured after different incubation time [4, 14]: 22.2 µg/mL
- Concentration of the target in the solution measured after different incubation time [4, 15]: 33.5 µg/mL
- Concentration of the target in the solution measured after different incubation time [4, 16]: 30.2 µg/mL
- Concentration of the target in the solution measured after different incubation time [4, 17]: 23.6 µg/mL
- Concentration of the target in the solution measured after different incubation time [4, 18]: 51.2 µg/mL
- Concentration of the target in the solution measured after different incubation time [4, 19]: 26.7 µg/mL
- Concentration of the target in the solution measured after different incubation time [4, 20]: 11.8 µg/mL
- Concentration of guest molecule in solution ([4]; binary: 0.25% 102H): 276 µg/mL
- Times that of the initial medium ([4]; binary: 0.25% 102H): about 13.5 times
SMILES: CCOC(=O)C1=C(C)NC(C)=C(C(=O)OC)C1c1cccc(Cl)c1Cl (stereo not drawn) [Felodipine]
- LogD7.4 or Log P [1]: 3.90

- Concentration of guest molecule measured after different incubated time ([2]; 0.5 h, 0.1% SDS in pH 6.8 phosphate buffer): 98.5 µg/mL
- Concentration of guest molecule measured after different incubated time ([2]; 3 h, 0.1% SDS in pH 6.8 phosphate buffer): 4.1 µg/mL
- Concentration of guest molecule measured after different incubated time ([2]; 6 h, 0.1% SDS in pH 6.8 phosphate buffer): 4.4 µg/mL
- Concentration of guest molecule in solution [3, 21]: 512.2 µg/mL
- Times that of the initial medium [3, 21]: 91.3 times
- Concentration of guest molecule in solution [3, 22]: 572.8 µg/mL
- Times that of the initial medium [3, 22]: 102.1 times
- Concentration of guest molecule in solution [3, 23]: 543.3 µg/mL
- Times that of the initial medium [3, 23]: 96.8 times
- Concentration of guest molecule in solution [3, 24]: 431.5 µg/mL
- Times that of the initial medium [3, 24]: 76.9 times
- Concentration of guest molecule in solution [3, 25]: 609.8 µg/mL
- Times that of the initial medium [3, 25]: 108.7 times
- Concentration of guest molecule in solution [3, 26]: 644.6 µg/mL
- Times that of the initial medium [3, 26]: 115 times
- Concentration of guest molecule in solution ([3]; ternary: 102H + 310, carrier % not stated, 6 h): 65.6 µg/mL
- Concentration of guest molecule in solution ([3]; ternary: 102H + 310, 2 h): 903.1 µg/mL
- Concentration of guest molecule in solution ([3]; ternary: 102H + 311, 4 h): 804.8 µg/mL
- Concentration of guest molecule in solution ([3]; ternary: 102H + 311, 6 h): 246.9 µg/mL
- Concentration of guest molecule in solution ([3]; ternary: 102H + 313, carrier % not given, 6 h): 634.8 µg/mL
- Concentration of guest molecule in solution ([3]; ternary: 102H + 313, 4 h): 884.2 µg/mL
- Concentration of guest molecule in solution ([3]; ternary: 102H + 318, carrier % not stated, 6 h): 115.4 µg/mL
- Concentration of guest molecule in solution ([3]; ternary: 102H + 318, 2 h): 778.1 µg/mL
- Concentration of the target in the solution measured after different incubation time [4, 6]: 741.5 µg/mL
- Concentration of the target in the solution measured after different incubation time [4, 7]: 751.6 µg/mL
- Concentration of the target in the solution measured after different incubation time [4, 8]: 759.3 µg/mL
- Concentration of the target in the solution measured after different incubation time [4, 9]: 770.6 µg/mL
- Concentration of the target in the solution measured after different incubation time [4, 10]: 151.8 µg/mL
- Concentration of the target in the solution measured after different incubation time [4, 11]: 102.9 µg/mL
- Concentration of the target in the solution measured after different incubation time [4, 12]: 602.5 µg/mL
- Concentration of the target in the solution measured after different incubation time [4, 13]: 61.5 µg/mL
- Concentration of the target in the solution measured after different incubation time [4, 14]: 38.5 µg/mL
- Concentration of the target in the solution measured after different incubation time ([4]; binary system with 0.5% polymer 104, incubation 0.5 h): 108.9 µg/mL
- Concentration of the target in the solution measured after different incubation time ([4]; binary system with 0.5% polymer 104, incubation 3 h): 4.3 µg/mL
- Concentration of the target in the solution measured after different incubation time ([4]; binary system with 0.5% polymer 104, incubation 6 h): 3.7 µg/mL
- Concentration of the target in the solution measured after different incubation time [4, 15]: 765.3 µg/mL
- Concentration of the target in the solution measured after different incubation time [4, 16]: 571.3 µg/mL
- Concentration of the target in the solution measured after different incubation time [4, 17]: 310.3 µg/mL
- Concentration of the target in the solution measured after different incubation time [4, 18]: 784.3 µg/mL
- Concentration of the target in the solution measured after different incubation time [4, 19]: 432.2 µg/mL
- Concentration of the target in the solution measured after different incubation time [4, 20]: 244.4 µg/mL
- Concentration of guest molecule in solution ([4]; binary: 0.5% 102H): 102.9 µg/mL
- Times that of the initial medium ([4]; binary: 0.5% 102H): 18.4 times
- Average concentration of guest molecule in solution ([4]; binary: 0.5% 102H, within 4 to 6 hours): 110 µg/mL
- Concentration of guest molecule in solution ([4]; binary: 0.5% 103E5): 33.4 µg/mL
- Times that of the initial medium ([4]; binary: 0.5% 103E5): 6.0 times
- Concentration of guest molecule in solution ([4]; binary: 0.5% 107): 171.6 µg/mL
- Times that of the initial medium ([4]; binary: 0.5% 107): 30.6 times
SMILES: CNC(=O)c1cc(Oc2ccc(NC(=O)Nc3ccc(Cl)c(C(F)(F)F)c3)cc2)ccn1 [Sorafenib]
- LogD7.4 or Log P [1]: 4.34
